Reference: PubChem BioAssay AID2060489 (Molecular Pharmacology Branch, DTP, NCI, 2025)

Tested on: 922993-354-T-J3-PDC complex spheroids, viability
Experiment: Anticancer human tumor 922993-354-T-J3-PDC patient-derived endometrial carcinoma cell line growth inhibition [GQUAD]
Details: for IC50: curve of first compound; for viability, T/C: stronger effect = lower value; active = viability on the fitted dose curve at most 10% of control; inactive = the rest
Text: DNA G-quadruplex Stabilizer Agents in Combinations in Complex Spheroids
A high-throughput screen of multi-cell type tumor spheroids was designed to identify active combinations of DNA G-quadruplex stabilizer agents and targeted small molecules. Complex spheroids include a stromal component modeled by human endothelial cells (HUVEC) and fibroblasts modeled by human mesenchymal stem cells (MSCs). The concentration ranges selected for each drug and investigational agent were based upon clinically achievable concentrations if the clinical Cmax of the agent was known.
Compounds. The drugs and investigational agents: pidnarulex (CX-5461; NSC782164), APTO-253 (NSC789042), BRACO-19 (NSC847499), peposertib (NSC802822), ceralasertib (NSC780249), elimusertib (NSC800525), camonsertib (NSC841442), AZD-1390 (NSC803789), olaparib (NSC753686), talazoparib (NSC767125), ART-558 (NSC835418), sotorasib (NSC818433), MRTX-1133 (NSC836407), SN-38 (NSC673596), topotecan (NSC609699), etoposide (NSC141540), doxorubicin (NSC123127), gemcitabine (NSC613327), 5-fluorouracil (NSC19893), paclitaxel (NSC125973), vemurafenib (NSC761431), panobinostat (NSC761190), R-306465 (JNJ-16241199; NSC773264), adavosertib (NSC754352), TP-3654 (NSC805149), carboplatin (NSC241240), KSQ-4279 (NSC840948), and staurosporine (NSC755774) were obtained from the National Cancer Institute (NCI) Developmental Therapeutics Program Chemical Repository (34). The FDA-approved anticancer drug set is available from the NCI Developmental Therapeutics Program. […] The stock solutions were prepared in dimethyl sulfoxide (DMSO, Sigma-Aldrich, St. Louis, MO, cat. D2650) at 800-fold the tested concentration and stored at -70 degrees C prior to their use. All drugs and investigational agents were tested over a range starting from a high concentration at or near the clinical Cmax and decreasing in half-log increments. If the clinical Cmax for an agent had not been determined, the highest concentration tested was 10 microM.
2.3 Cell Culture. All cells were maintained in an incubator at 37 degrees C and 5% CO2 with 95% humidity. The PDC lines were cultured according to standard operating procedures established by the NCI PDMR. All PDCs were thawed and cultured in Matrigel-coated flasks prepared with a working solution of 1X Ham's F-12 nutrient mix, without supplementation (Invitrogen, cat. 11765054), 100 U/mL penicillin-streptomycin (Invitrogen, cat. 15140122), and 2.5% Matrigel (Corning Inc., cat. 354248) for the first three passages. The 857933-349-R-J2-PDC line was cultured in 6C/Colon 1B media, which includes advanced DMEM/F-12 (Thermo Fisher Scientific, cat. 12634028), 10 mM HEPES (Thermo Fisher Scientific, cat. 15630080), 1X GlutaMAX supplement (Thermo Fisher Scientific, cat. 35050061), 0.1 mg/mL primocin (InvivoGen, cat. ant-pm-2), 10% defined fetal bovine serum, heat inactivated (HyClone Laboratories Inc., cat. SH30070.03HI), 50% L-WRN conditioned media (ATCC, cat. CRL-3276), 1.25 mM N-Acetyl-L-cysteine (Sigma-Aldrich, cat. A9165), 10 mM nicotinamide (Sigma-Aldrich, cat. N0636), 1X B-27 supplement (Thermo Fisher Scientific, cat. 17504044), 1X N-2 supplement (Thermo Fisher Scientific, cat. 17502048), 10 microM Y-27632 dihydrochloride (Tocris Bioscience, cat. 1254), and 50 ng/mL human EGF recombinant protein (Thermo Fisher Scientific, cat. PHG0311). The 485176-168-R4-J1-PDC line was cultured in Panc media, which includes all 6C/Colon 1B media components plus 100 ng/mL human FGF-10 (Thermo Fisher Scientific, cat. 100-26), 500 nM SB-431542 (Selleckchem, cat. S1067), and gastrin (Tocris, cat. 3006).
[…]

[1] = second compound 0.0316 µM, first compound 0.0316 µM
[2] = second compound 0.0316 µM, first compound 0.1 µM
[3] = second compound 0.0316 µM, first compound 0.316 µM
[4] = second compound 0.0316 µM, first compound 1 µM
[5] = second compound 0.0316 µM, first compound 3.16 µM
[6] = second compound 0.0316 µM, first compound 10 µM
[7] = second compound 0.1 µM, first compound 0.0316 µM
[8] = second compound 0.1 µM, first compound 0.1 µM
[9] = second compound 0.1 µM, first compound 0.316 µM
[10] = second compound 0.1 µM, first compound 1 µM
[11] = second compound 0.1 µM, first compound 3.16 µM
[12] = second compound 0.1 µM, first compound 10 µM
[13] = second compound 0.316 µM, first compound 0.0316 µM
[14] = second compound 0.316 µM, first compound 0.1 µM
[15] = second compound 0.316 µM, first compound 0.316 µM
[16] = second compound 0.316 µM, first compound 1 µM
[17] = second compound 0.316 µM, first compound 3.16 µM
[18] = second compound 0.316 µM, first compound 10 µM
[19] = second compound 1 µM, first compound 0.0316 µM
[20] = second compound 1 µM, first compound 0.1 µM
[21] = second compound 1 µM, first compound 0.316 µM
[22] = second compound 1 µM, first compound 1 µM
[23] = second compound 1 µM, first compound 3.16 µM
[24] = second compound 1 µM, first compound 10 µM
[25] = second compound 3.16 µM, first compound 0.0316 µM
[26] = second compound 3.16 µM, first compound 0.1 µM
[27] = second compound 3.16 µM, first compound 0.316 µM
[28] = second compound 3.16 µM, first compound 1 µM
[29] = second compound 3.16 µM, first compound 3.16 µM
[30] = second compound 3.16 µM, first compound 10 µM
[31] = second compound 10 µM, first compound 0.0316 µM
[32] = second compound 10 µM, first compound 0.1 µM
[33] = second compound 10 µM, first compound 0.316 µM
[34] = second compound 10 µM, first compound 1 µM
[35] = second compound 10 µM, first compound 3.16 µM
[36] = second compound 10 µM, first compound 10 µM
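Also: spheroids exposed to compounds for seven days.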

CC(C)(O)C1CCC(Nc2ccc3ncc(-c4cccc(C(F)(F)F)c4)n3n2)CC1 (centres undefined) + CN(C)c1ccc(Nc2c3ccc(NC(=O)CCN4CCCC4)cc3nc3cc(NC(=O)CCN4CCCC4)ccc23)cc1
> 10 µM: IC50 (second compound 0.0316 µM) | IC50 (second compound 0.1 µM) | IC50 (second compound 0.316 µM) | IC50 (second compound 1 µM) | IC50 (second compound 3.16 µM) | IC50 (second compound 10 µM)
inactive: viability, T/C [1] 78.5% | viability, T/C [2] 92.8% | viability, T/C [3] 99.9% | viability, T/C [4] 80.2% | viability, T/C [5] 85.1% | viability, T/C [6] 92.3% | viability, T/C [7] 100% | viability, T/C [8] 91% | viability, T/C [9] 88.6% | viability, T/C [10] 87.6% | viability, T/C [11] 76.6% | viability, T/C [12] 81.2% | viability, T/C [13] 108% | viability, T/C [14] 83% | viability, T/C [15] 96.5% | viability, T/C [16] 89.7% | viability, T/C [17] 58% | viability, T/C [18] 63.3% | viability, T/C [19] 69.5% | viability, T/C [20] 96.2% | viability, T/C [21] 79% | viability, T/C [22] 75.2% | viability, T/C [23] 78.9% | viability, T/C [24] 61.2% | viability, T/C [25] 92% | viability, T/C [26] 95% | viability, T/C [27] 90.4% | viability, T/C [28] 94.3% | viability, T/C [29] 85% | viability, T/C [30] 74.4% | viability, T/C [31] 120% | viability, T/C [32] 140% | viability, T/C [33] 103% | viability, T/C [34] 88.8% | viability, T/C [35] 78.3% | viability, T/C [36] 55%

COc1ccc([C@@H](O)c2cc(-c3ncnc4cc(N5CCOCC5)ccc34)c(F)cc2Cl)nn1 + CN(C)c1ccc(Nc2c3ccc(NC(=O)CCN4CCCC4)cc3nc3cc(NC(=O)CCN4CCCC4)ccc23)cc1
inactive: viability, T/C [1] 101% | viability, T/C [2] 111% | viability, T/C [3] 103% | viability, T/C [4] 111% | viability, T/C [5] 104% | viability, T/C [6] 82.3% | viability, T/C [7] 105% | viability, T/C [8] 99.5% | viability, T/C [9] 89.7% | viability, T/C [10] 88.2% | viability, T/C [11] 84.8% | viability, T/C [12] 71.8% | viability, T/C [13] 76.6% | viability, T/C [14] 103% | viability, T/C [15] 83.6% | viability, T/C [16] 79% | viability, T/C [17] 86.9% | viability, T/C [18] 71.4% | viability, T/C [19] 119% | viability, T/C [20] 106% | viability, T/C [21] 104% | viability, T/C [22] 101% | viability, T/C [23] 88.4% | viability, T/C [24] 79.2% | viability, T/C [25] 81.5% | viability, T/C [26] 101% | viability, T/C [27] 120% | viability, T/C [28] 105% | viability, T/C [29] 97.7% | viability, T/C [30] 75.1% | viability, T/C [31] 105% | viability, T/C [32] 110% | viability, T/C [33] 134% | viability, T/C [34] 88.6% | viability, T/C [35] 109% | viability, T/C [36] 83.1%
> 10 µM: IC50 (second compound 0.0316 µM) | IC50 (second compound 0.1 µM) | IC50 (second compound 0.316 µM) | IC50 (second compound 1 µM) | IC50 (second compound 3.16 µM) | IC50 (second compound 10 µM)
